39 compounds from patent publication US6949574B2 (Bristol-Myers Squibb Company, priority 2002, dated 2005) can be followed below.

SMILES strings stand for the structures.

In general, IC50 refers to the point on the concentration scale where inhibition reaches its midpoint.

One test concerns the target T1, human FAAH (Homo sapiens, UniProt O00519).
T1 construct: expressed in transfected cells; host or cells: H4 cells (H4-FAAH, Geneticin-selected); crude membrane homogenates
T1 sequence (O00519 1-579): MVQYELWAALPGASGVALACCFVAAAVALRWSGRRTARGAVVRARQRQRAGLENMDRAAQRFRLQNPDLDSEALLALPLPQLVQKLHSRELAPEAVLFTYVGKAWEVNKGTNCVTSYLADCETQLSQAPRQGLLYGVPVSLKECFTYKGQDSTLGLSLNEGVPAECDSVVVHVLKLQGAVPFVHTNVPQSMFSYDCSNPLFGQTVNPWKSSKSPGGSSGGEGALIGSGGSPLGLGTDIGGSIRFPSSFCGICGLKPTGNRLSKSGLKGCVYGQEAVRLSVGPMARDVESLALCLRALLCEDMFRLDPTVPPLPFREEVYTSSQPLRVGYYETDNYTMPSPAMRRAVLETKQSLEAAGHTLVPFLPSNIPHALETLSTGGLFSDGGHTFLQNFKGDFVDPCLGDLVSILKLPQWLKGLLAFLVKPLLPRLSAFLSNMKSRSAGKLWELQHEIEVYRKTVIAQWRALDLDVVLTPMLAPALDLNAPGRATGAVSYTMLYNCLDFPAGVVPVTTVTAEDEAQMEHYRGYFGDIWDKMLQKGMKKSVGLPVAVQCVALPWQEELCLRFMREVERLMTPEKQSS
In words: FAAH activity in membrane homogenates of H4-FAAH cells, [3H]-anandamide hydrolysis. It counts as biochemical.
Conditions: not given
As to the method:
Homogenates of crude membranes were prepared from H4 cells that express transfected human FAAH (H4-FAAH cells). Briefly, cells were grown in DMEM supplemented with 10% FBS and Geneticin at a final concentration of 500 μg/ml (Gibco BRL, Rockville, Md.). Confluent cultures of H4-FAAH cells were rinsed twice with phosphate-buffered saline [138 mM NaCl, 4.1 mM KCl, 5.1 mM Na2PO4, 1.5 mM KH2PO4 (pH 7.5), 37° C.] and incubated for 5 to 10 minutes at 4° C. in lysis buffer [1 mM sodium bicarbonate]. Cells were transferred from plates to polypropylene tubes (16×100 mm), homogenized and centrifuged at 32,000×g for 30 minutes. Pellets were resuspended by homogenization in lysis buffer and centrifuged at 32,000×g for 30 minutes. Pellets were resuspended in lysis buffer (15-20 μg protein/ml) then stored at −80° C. until needed. On the day of an experiment, membranes were diluted to 2.67 μg protein/ml in 125 mM Tris-Cl, pH 9.0.
Activity of FAAH was measured using a modification of the method described by Omeir et al., 1995 (Life Sci 56:1999, 1995). Membrane homogenates (240 ng protein) were incubated at room temperature for one hour with 1.67 nM anandamide [ethanolamine 1-^3H] (available from American Radiolabeled Chemical Inc., St Louis, Mo.) and 10 μM anandamide (available from Sigma/RBI, St. Louis, Mo.) in the absence and presence of inhibitors. The reaction was stopped by the addition of 1 volume of a solution of 1:1 methanol and dichloroethane. The mixture was shaken and then centrifuged at 1000×g for 15 minutes to separate the aqueous and organic phases. An aliquot of the aqueous phase, containing [^3H]-ethanolamine was withdrawn and counted by scintillation spectroscopy. Data were expressed as the percentage of [^3H]-ethanolamine formed versus vehicle, after subtraction of the background radioactivity determined in the presence of 10 μM arachidonyl trifluoromethyl ketone (ATFMK), an inhibitor of FAAH. IC50 values were determined using a four-parameter logistic equation for dose-response curves.
With `CCCCCCCCCCOc1ccc(NC(=O)Oc2ccccc2)cc1` [Example 101, 4-Decyloxyphenylcarbamic acid, phenyl ester], the 50% inhibitory concentration (IC50) is less than 10 nM.
Regarding `CCCCCCCCCCCOc1ccc(NC(=O)Oc2ccccc2)cc1` [Example 103, 4-Undecyloxyphenylcarbamic acid, phenyl ester], the half-maximal inhibitory concentration (IC50) is less than 10 nM.
On to `CCCCCCCCCCCOc1ccc(NC(=O)Oc2ccccc2F)cc1` [Example 104, 4-Undecyloxyphenylcarbamic acid, 2-fluorophenyl ester], for which the 50% inhibitory concentration (IC50) fell in the range of 10 to 100 nM.

The test is the same for the next values; noted with them: H4-FAAH cell membranes, 10 μM anandamide, room temperature, one hour; read-out: IC50.
Regarding `O=C(Nc1ccc(Oc2ccccc2)cc1)O/N=C/c1ccccc1` [Example 76, Benzaldehyde, O-[[(4-phenoxyphenyl)amino]carbonyl]oxime], the half-inhibitory concentration (IC50) was less than 10 nM.
For the compound `O=C(Nc1ccc(Oc2ccccc2)cc1)O/N=C/c1ccc(F)cc1` [Example 77, 4-Fluorobenzaldehyde, O-[[(4-phenoxyphenyl)amino]carbonyl]oxime], the half-inhibitory concentration (IC50) is less than 10 nM.
As to `O=C(Nc1ccc(OCc2ccccc2)cc1)O/N=C/c1cccnc1` [Example 78, 3-Pyridinecarboxaldehyde, O-[[[4-(phenylmethoxy)phenyl]amino]carbonyl]oxime], the half-maximal inhibitory concentration (IC50) was less than 10 nM.
Regarding `O=C(Nc1ccc(OCCc2ccccc2)cc1)O/N=C/c1cccnc1` [Example 79, 3-Pyridinecarboxaldehyde, O-[[[4-(2-phenylethoxy)phenyl]amino]carbonyl]oxime], the IC50 is less than 10 nM.
As for `O=C(Nc1ccc(OCCCc2ccccc2)cc1)O/N=C/c1cccnc1` [Example 80, 3-Pyridinecarboxaldehyde, O-[[[4-(3-phenylpropoxy)phenyl]amino]carbonyl]oxime], the concentration for half-maximal inhibition (IC50) is less than 10 nM.
Same read-out and setting: the same measure for `O=C(Nc1ccc(OCc2ccccc2)cc1)O/N=C/c1ccc(F)cc1` [Example 81, 4-Fluorobenzaldehyde, O-[[[4-(phenylmethoxy)phenyl]amino]carbonyl]oxime]: less than 10 nM.
For the compound `O=C(Nc1ccc(OCCc2ccccc2)cc1)O/N=C/c1ccc(F)cc1` [Example 82, 4-Fluorobenzaldehyde, O-[[[4-(2-phenylethoxy)phenyl]amino]carbonyl]oxime], the half-maximal inhibitory concentration (IC50) is less than 10 nM.
For the compound `O=C(Nc1ccc(OCCCc2ccccc2)cc1)O/N=C/c1ccc(F)cc1` [Example 83, 4-Fluorobenzaldehyde, O-[[[4-(3-phenylpropoxy)phenyl]amino]carbonyl]oxime], the concentration for half-maximal inhibition (IC50) is less than 10 nM.
`O=C(Nc1ccc(OCc2ccccc2)cc1)O/N=C/c1ccccc1` [Example 84, Benzaldehyde, O-[[[4-(phenylmethoxy)phenyl]amino]carbonyl]oxime]: the IC50 was less than 10 nM.
Still for that read-out and setting: the same measure for `O=C(Nc1ccc(OCCc2ccccc2)cc1)O/N=C/c1ccccc1` [Example 85, Benzaldehyde, O-[[[4-(2-phenylethoxy)phenyl]amino]carbonyl]oxime]: less than 10 nM; for `O=C(Nc1ccc(OCCCc2ccccc2)cc1)O/N=C/c1ccccc1` [Example 86, Benzaldehyde, O-[[[4-(3-phenylpropoxy)phenyl]amino]carbonyl]oxime]: less than 10 nM; for `O=C(Nc1cccc(Oc2ccccc2)c1)O/N=C/c1cccnc1` [Example 87, 3-Pyridinecarboxaldehyde, O-[[(3-phenoxyphenyl)amino]carbonyl]oxime]: less than 10 nM.
Same read-out and setting: under `O=C(Nc1cccc(Oc2ccccc2)c1)O/N=C/c1ccc(F)cc1` [Example 88, 4-Fluorobenzaldehyde, O-[[(3-phenoxyphenyl)amino]carbonyl]oxime] stands less than 10 nM; under `O=C(Nc1cccc(Oc2ccccc2)c1)O/N=C/c1ccccc1` [Example 91, Benzaldehyde, O-[[(3-phenoxyphenyl)amino]carbonyl]oxime], less than 10 nM; under `O=C(Nc1ccccc1Oc1ccccc1)O/N=C/c1cccnc1` [Example 92, 3-Pyridinecarboxaldehyde, O-[[(2-phenoxyphenyl)amino]carbonyl]oxime], greater than 500 nM.
`CCCCCCOc1ccc(NC(=O)Oc2ccccc2)cc1` [Example 93, 4-Hexyloxyphenylcarbamic acid, phenyl ester]: the IC50 lay within 10 to 100 nM.
Turning to `CCCCCCOc1ccc(NC(=O)Oc2ccccc2F)cc1` [Example 94, 4-Hexyloxyphenylcarbamic acid, 2-fluorophenyl ester], the half-inhibitory concentration (IC50) is greater than 500 nM.
Take `CCCCOc1ccc(NC(=O)OC)cc1` [Example 95, 4-Butoxyphenylcarbamic acid, methyl ester]: the concentration for half-maximal inhibition (IC50) was greater than 500 nM.
Same read-out and setting: under `CCCCCCCOc1ccc(NC(=O)Oc2ccccc2)cc1` [Example 96, 4-Heptyloxyphenylcarbamic acid, phenyl ester] stands less than 10 nM; under `CCCCCCCOc1ccc(NC(=O)Oc2ccccc2F)cc1` [Example 97, 4-Heptyloxyphenylcarbamic acid, 2-fluorophenyl ester], 10 to 100 nM.
For `CCCCCCCCOc1ccc(NC(=O)Oc2ccccc2)cc1` [Example 98, 4-Octyloxyphenylcarbamic acid, phenyl ester], the concentration for half-maximal inhibition (IC50) is less than 10 nM.
Turning to `CCCCCCCCOc1ccc(NC(=O)Oc2ccccc2F)cc1` [Example 99, 4-Octyloxyphenylcarbamic acid, 2-fluorophenyl ester], the IC50 was 10 to 100 nM.
The same measure, in the same setting: under `CCCCOc1ccc(NC(=O)Oc2ccc(Cl)cc2)cc1` [Example 100] stands 10 to 100 nM.
Consider `CCCCCCCCCCOc1ccc(NC(=O)Oc2ccccc2F)cc1` [Example 102, 4-Decyloxyphenylcarbamic acid, 2-fluorophenyl ester], for which the IC50 is less than 10 nM.
As for `CCCCCCCCCCCCOc1ccc(NC(=O)Oc2ccccc2)cc1` [Example 105, 4-Dodecyloxyphenylcarbamic acid, phenyl ester], the IC50 is less than 10 nM.
Same read-out and setting: under `CCCCCCCCCCCCOc1ccc(NC(=O)Oc2ccccc2F)cc1` [Example 106, 4-Dodecyloxyphenylcarbamic acid, 2-fluorophenyl ester] stands 10 to 100 nM.
Consider `CCCCOc1ccc(NC(=O)Oc2ccccc2F)cc1` [Example 107, 4-Butoxyphenylcarbamic acid, 2-fluorophenyl ester], for which the IC50 fell in the range of 101 to 500 nM.
The same measure, in the same setting: the same measure for `CCCCOc1ccc(NC(=O)Oc2ccc(F)cc2)cc1` [Example 108, 4-Butoxyphenylcarbamic acid, 4-fluorophenyl ester]: 101 to 500 nM; for `CCCCOc1ccc(NC(=O)Oc2ccc(F)c(F)c2)cc1` [Example 109, 4-Butoxyphenylcarbamic acid, 3,4-difluorophenyl ester]: greater than 500 nM; for `CCCCOc1ccc(NC(=O)Oc2ccccc2OC)cc1` [Example 110, 4-Butoxyphenylcarbamic acid, 2-methoxyphenyl ester]: greater than 500 nM.
With `CCCCOc1ccc(CNC(=O)Oc2ccccc2)cc1` [Example 111, 4-(Butoxyphenylmethyl)carbamic acid, phenyl ester], the IC50 was less than 10 nM.
On the same count and under the same terms, under `CCCCOc1ccc(CNC(=O)Oc2ccccc2F)cc1` [Example 112, 4-(Butoxyphenylmethyl)carbamic acid, 2-fluorophenyl ester] stands less than 10 nM; under `CCCCOc1ccc(CNC(=O)Oc2ccc(OC)cc2)cc1` [Example 113, 4-(Butoxyphenylmethyl)carbamic acid, 4-methoxyphenyl ester], less than 10 nM; under `CCCCOc1ccc(CNC(=O)Oc2cccc3ccccc23)cc1` [Example 115, 4-(Butoxyphenylmethyl)carbamic acid, 1-naphthalenyl ester], 10 to 100 nM.
Same read-out and setting: the same measure for `CCCCOc1ccc(CNC(=O)Oc2ccc3ccccc3c2)cc1` [Example 116, 4-(Butoxyphenylmethyl)carbamic acid, 2-naphthalenyl ester]: 10 to 100 nM; for `CCCCOc1ccc(CNC(=O)Oc2ccc(C(C)C)cc2)cc1` [Example 117, 4-(Butoxyphenylmethyl)carbamic acid, 4-(1-methylethyl)phenyl ester]: 10 to 100 nM.
